Source: PMC4490784, “Compensatory induction of MYC expression by sustained CDK9 inhibition via a BRD4-dependent mechanism” (eLife, 2015)

How the values were obtained:
Test in all cases: KINOMEscan binding assay
TESK1 = target: T1, TESK1 (Homo sapiens, UniProt Q15569); conditions: read-out: % Retention on Solid Support
T1 construct: purchased DiscoveRx KINOMEscan
Experimental: (§1) As there are no commercial or in-house kinase assays available for CDK3, CDK5, CDK11 and CDK13, the inhibitory abilities of i-CDK9 toward these CDKs were thus evaluated in the DiscoveRx KINOMEscan assay, which is based on a proprietary active site-directed competition-binding platform ([Fabian et al., 2005]).
(§2) The inhibitory activity of i-CDK9 for CDK1-CycB (Upstate/Millipore), CDK2-CycA (Invitrogen), CDK4-CycD1 (Novartis), CDK7-CycH-MAT1 (Invitrogen), and CDK9-CycT1 (Invitrogen) was assessed in the AlphaScreen (PerkinElmer, Inc)-based kinase assay developed at Novartis. Briefly, each CDK–cyclin pair was pre-incubated with i-CDK9 for 15 min, followed by addition of kinase substrates (ELK for CDK1 and CDK2, RB for CDK4, and CDK7tide for CDK7 and CDK9). The mixture was incubated at room temperature for additional 4–5 hr. The reaction was stopped and read on Envision (PerkinElmer, Inc). Selectivity against a large panel of over 400 kinases was evaluated using the KINOMEscan platform (DiscoveRx, CA) employing a proprietary active site-directed competition binding assay ([Fabian et al., 2005]). The assay was conducted at two different concentrations of i-CDK9 (1 and 10 µM) by DiscoveRx.

MUSK = target: T2, MUSK (Homo sapiens, UniProt O15146); conditions: read-out: % Retention on Solid Support
T2 construct: purchased DiscoveRx KINOMEscan
Experimental: as §1, §2

ERK8 = target: T3, ERK8 (Homo sapiens, UniProt Q8TD08); conditions: read-out: % Retention on Solid Support
T3 construct: purchased DiscoveRx KINOMEscan
Experimental: as §1, §2

WEE1 = target: T4, WEE1 (Homo sapiens, UniProt P30291); conditions: read-out: % Retention on Solid Support
T4 construct: purchased DiscoveRx KINOMEscan
Experimental: as §1, §2

[1] = target: T5, EGFR(L747-S752del, P753S) (Homo sapiens, UniProt P00533, DEL747-752/P753S)
T5 construct: purchased DiscoveRx KINOMEscan
Experimental: as §1, §2

SIK = target: T6, SIK (Homo sapiens, UniProt P57059)
T6 construct: purchased DiscoveRx KINOMEscan
Experimental: as §1, §2

MAP4K2 = target: T7, MAP4K2 (Homo sapiens, UniProt Q12851); conditions: read-out: % Retention on Solid Support
T7 construct: purchased DiscoveRx KINOMEscan
Experimental: as §1, §2

STK35 = target: T8, STK35 (Homo sapiens, UniProt Q8TDR2); conditions: read-out: % Retention on Solid Support
T8 construct: purchased DiscoveRx KINOMEscan
Experimental: as §1, §2

BMX = target: T9, BMX (Homo sapiens, UniProt P51813); conditions: read-out: % Retention on Solid Support
T9 construct: purchased DiscoveRx KINOMEscan
Experimental: as §1, §2

CSNK2A2 = target: T10, CSNK2A2 (Homo sapiens, UniProt P19784); conditions: read-out: % Retention on Solid Support
T10 construct: purchased DiscoveRx KINOMEscan
Experimental: as §1, §2

FLT1 = target: T11, FLT1 (Homo sapiens, UniProt P17948); conditions: read-out: % Retention on Solid Support
T11 construct: purchased DiscoveRx KINOMEscan
Experimental: as §1, §2

DCAMKL2 = target: T12, DCAMKL2 (Homo sapiens, UniProt Q8N568); conditions: read-out: % Retention on Solid Support
T12 construct: purchased DiscoveRx KINOMEscan
Experimental: as §1, §2

CAMK4 = target: T13, CAMK4 (Homo sapiens, UniProt Q16566); conditions: read-out: % Retention on Solid Support
T13 construct: purchased DiscoveRx KINOMEscan
Experimental: as §1, §2

[2] = target: T14, ABL1(Y253F)-non phosphorylated (Homo sapiens, UniProt P00519, Y253F); conditions: read-out: % Retention on Solid Support
T14 construct: purchased DiscoveRx KINOMEscan
Experimental: as §1, §2

PIP5K2B = target: T15, PIP5K2B (Homo sapiens, UniProt P78356); conditions: read-out: % Retention on Solid Support
T15 construct: purchased DiscoveRx KINOMEscan
Experimental: as §1, §2

BRK = target: T16, BRK (Homo sapiens, UniProt Q13882); conditions: read-out: % Retention on Solid Support
T16 construct: purchased DiscoveRx KINOMEscan
Experimental: as §1, §2

PIP5K2C = target: T17, PIP5K2C (Homo sapiens, UniProt Q8TBX8); conditions: 1 µM i-CDK9; read-out: % Retention on Solid Support
T17 construct: purchased DiscoveRx KINOMEscan
Experimental: as §1, §2

ABL1-phosphorylated = target: T18, ABL1-phosphorylated (Homo sapiens, UniProt P00519); conditions: 1 µM i-CDK9; read-out: % Retention on Solid Support
T18 construct: purchased DiscoveRx KINOMEscan
Experimental: as §1, §2

TNK2 = target: T19, TNK2 (Homo sapiens, UniProt Q07912); conditions: read-out: % Retention on Solid Support
T19 construct: purchased DiscoveRx KINOMEscan
Experimental: as §1, §2

YANK1 = target: T20, YANK1 (Homo sapiens, UniProt Q8WU08); conditions: 1 µM i-CDK9; read-out: % Retention on Solid Support
T20 construct: purchased DiscoveRx KINOMEscan
Experimental: as §1, §2

PRKG2 = target: T21, PRKG2 (Homo sapiens, UniProt Q13237); conditions: read-out: % Retention on Solid Support
T21 construct: purchased DiscoveRx KINOMEscan
Experimental: as §1, §2

CAMK2D = target: T22, CAMK2D (Homo sapiens, UniProt Q13557); conditions: read-out: % Retention on Solid Support
T22 construct: purchased DiscoveRx KINOMEscan
Experimental: as §1, §2

CSNK1A1 = target: T23, CSNK1A1 (Homo sapiens, UniProt P48729); conditions: 1 µM i-CDK9; read-out: % Retention on Solid Support
T23 construct: purchased DiscoveRx KINOMEscan
Experimental: as §1, §2

MKK7 = target: T24, MKK7 (Homo sapiens, UniProt O14733); conditions: 1 µM i-CDK9
T24 construct: purchased DiscoveRx KINOMEscan
Experimental: as §1, §2

[3] = target: T25, ABL1(H396P)-nonphosphorylated (Homo sapiens, UniProt P00519, H396P); conditions: read-out: % Retention on Solid Support
T25 construct: purchased DiscoveRx KINOMEscan
Experimental: as §1, §2

RET(V804L) = target: T26, RET(V804L) (Homo sapiens, UniProt P07949, V804L); conditions: read-out: % Retention on Solid Support
T26 construct: purchased DiscoveRx KINOMEscan
Experimental: as §1, §2

LYN = target: T27, LYN (Homo sapiens, UniProt P07948); conditions: read-out: % Retention on Solid Support
T27 construct: purchased DiscoveRx KINOMEscan
Experimental: as §1, §2

CSNK1A1L = target: T28, CSNK1A1L (Homo sapiens, UniProt Q8N752); conditions: read-out: % Retention on Solid Support
T28 construct: purchased DiscoveRx KINOMEscan
Experimental: as §1, §2

MLK2 = target: T29, MLK2 (Homo sapiens, UniProt Q02779); conditions: read-out: % Retention on Solid Support
T29 construct: purchased DiscoveRx KINOMEscan
Experimental: as §1, §2

GSK3A = target: T30, GSK3A (Homo sapiens, UniProt P49840); conditions: read-out: % Retention on Solid Support
T30 construct: purchased DiscoveRx KINOMEscan
Experimental: as §1, §2

T11 sequence (P17948 27-1338): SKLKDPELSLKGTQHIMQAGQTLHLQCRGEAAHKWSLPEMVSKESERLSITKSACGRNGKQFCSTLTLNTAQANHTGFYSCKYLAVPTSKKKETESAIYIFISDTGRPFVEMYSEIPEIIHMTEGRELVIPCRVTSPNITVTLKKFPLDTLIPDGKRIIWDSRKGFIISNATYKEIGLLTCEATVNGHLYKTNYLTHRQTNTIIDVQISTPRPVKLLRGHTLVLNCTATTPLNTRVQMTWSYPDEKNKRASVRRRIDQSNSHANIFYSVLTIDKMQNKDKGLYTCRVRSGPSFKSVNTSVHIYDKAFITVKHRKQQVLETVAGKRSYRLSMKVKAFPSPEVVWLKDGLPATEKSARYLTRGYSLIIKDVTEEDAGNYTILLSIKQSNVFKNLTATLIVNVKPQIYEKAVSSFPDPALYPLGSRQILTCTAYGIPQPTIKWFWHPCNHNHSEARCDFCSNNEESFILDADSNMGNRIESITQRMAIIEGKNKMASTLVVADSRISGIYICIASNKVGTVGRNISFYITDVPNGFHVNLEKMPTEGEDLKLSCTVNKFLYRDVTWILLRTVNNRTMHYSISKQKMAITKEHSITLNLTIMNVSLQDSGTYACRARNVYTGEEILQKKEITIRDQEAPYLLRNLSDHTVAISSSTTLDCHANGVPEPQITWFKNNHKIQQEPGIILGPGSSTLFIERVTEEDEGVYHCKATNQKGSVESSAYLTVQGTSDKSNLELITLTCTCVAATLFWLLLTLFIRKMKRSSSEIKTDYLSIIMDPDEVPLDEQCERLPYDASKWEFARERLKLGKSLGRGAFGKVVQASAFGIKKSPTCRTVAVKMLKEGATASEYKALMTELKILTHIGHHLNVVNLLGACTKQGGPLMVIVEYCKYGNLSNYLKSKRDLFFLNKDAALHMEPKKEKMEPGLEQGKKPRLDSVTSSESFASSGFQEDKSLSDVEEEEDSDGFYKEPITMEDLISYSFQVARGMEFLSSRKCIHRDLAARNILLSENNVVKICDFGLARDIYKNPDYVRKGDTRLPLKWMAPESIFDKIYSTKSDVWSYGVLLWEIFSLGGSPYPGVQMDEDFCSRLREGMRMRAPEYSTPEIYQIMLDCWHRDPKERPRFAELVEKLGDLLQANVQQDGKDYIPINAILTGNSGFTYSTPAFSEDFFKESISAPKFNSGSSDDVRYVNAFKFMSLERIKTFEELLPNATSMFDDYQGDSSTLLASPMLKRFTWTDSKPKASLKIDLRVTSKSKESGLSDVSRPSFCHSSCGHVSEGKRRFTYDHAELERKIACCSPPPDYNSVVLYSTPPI
T16 sequence (Q13882 whole entry): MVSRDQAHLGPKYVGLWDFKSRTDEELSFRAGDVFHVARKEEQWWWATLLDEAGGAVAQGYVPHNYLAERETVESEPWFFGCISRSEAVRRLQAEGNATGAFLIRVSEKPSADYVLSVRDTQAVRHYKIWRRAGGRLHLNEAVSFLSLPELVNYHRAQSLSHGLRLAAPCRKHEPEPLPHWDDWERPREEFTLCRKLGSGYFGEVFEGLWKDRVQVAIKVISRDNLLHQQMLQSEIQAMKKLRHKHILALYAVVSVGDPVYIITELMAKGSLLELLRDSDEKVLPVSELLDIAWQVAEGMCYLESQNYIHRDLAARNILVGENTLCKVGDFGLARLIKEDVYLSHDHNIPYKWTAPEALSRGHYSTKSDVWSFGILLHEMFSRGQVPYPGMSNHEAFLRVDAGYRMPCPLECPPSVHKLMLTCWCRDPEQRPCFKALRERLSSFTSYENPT
T8 sequence (Q8TDR2 whole entry): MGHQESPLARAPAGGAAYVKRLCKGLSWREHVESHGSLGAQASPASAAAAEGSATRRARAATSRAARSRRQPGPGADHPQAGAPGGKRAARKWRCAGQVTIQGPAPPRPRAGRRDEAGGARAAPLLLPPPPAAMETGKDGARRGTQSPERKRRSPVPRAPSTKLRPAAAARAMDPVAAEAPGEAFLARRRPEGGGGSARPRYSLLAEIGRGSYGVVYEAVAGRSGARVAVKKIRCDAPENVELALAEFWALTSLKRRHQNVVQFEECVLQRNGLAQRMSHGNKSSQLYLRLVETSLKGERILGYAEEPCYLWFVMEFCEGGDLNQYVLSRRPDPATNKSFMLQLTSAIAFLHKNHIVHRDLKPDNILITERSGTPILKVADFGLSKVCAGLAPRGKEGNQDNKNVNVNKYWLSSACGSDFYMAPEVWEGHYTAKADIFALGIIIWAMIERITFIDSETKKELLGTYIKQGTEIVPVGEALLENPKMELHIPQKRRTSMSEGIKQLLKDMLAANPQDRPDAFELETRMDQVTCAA
T28 sequence (Q8N752 whole entry): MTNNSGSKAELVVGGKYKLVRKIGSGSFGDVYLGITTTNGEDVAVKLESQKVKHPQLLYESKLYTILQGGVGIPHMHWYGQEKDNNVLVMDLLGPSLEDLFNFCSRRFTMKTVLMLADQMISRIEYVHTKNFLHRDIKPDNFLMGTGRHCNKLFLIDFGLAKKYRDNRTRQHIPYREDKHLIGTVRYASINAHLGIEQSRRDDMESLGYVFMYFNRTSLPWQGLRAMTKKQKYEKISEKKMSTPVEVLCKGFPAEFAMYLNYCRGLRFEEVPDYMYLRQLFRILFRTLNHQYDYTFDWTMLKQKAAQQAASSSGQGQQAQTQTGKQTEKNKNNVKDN
T27 sequence (P07948 whole entry): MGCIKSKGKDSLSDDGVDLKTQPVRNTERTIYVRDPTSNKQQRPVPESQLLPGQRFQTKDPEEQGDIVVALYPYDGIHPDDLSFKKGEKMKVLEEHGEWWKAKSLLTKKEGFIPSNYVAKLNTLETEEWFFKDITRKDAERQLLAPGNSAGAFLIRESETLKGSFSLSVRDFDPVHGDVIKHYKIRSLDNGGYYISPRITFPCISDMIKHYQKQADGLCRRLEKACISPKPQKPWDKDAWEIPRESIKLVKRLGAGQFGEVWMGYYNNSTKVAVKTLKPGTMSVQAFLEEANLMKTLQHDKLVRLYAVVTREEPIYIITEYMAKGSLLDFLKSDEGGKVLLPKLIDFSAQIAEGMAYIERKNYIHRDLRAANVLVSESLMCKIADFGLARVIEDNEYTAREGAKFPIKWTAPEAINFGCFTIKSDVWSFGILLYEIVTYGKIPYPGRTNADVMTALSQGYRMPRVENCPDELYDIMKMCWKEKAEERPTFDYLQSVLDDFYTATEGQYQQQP
T26 sequence (P07949 29-1114 V804L): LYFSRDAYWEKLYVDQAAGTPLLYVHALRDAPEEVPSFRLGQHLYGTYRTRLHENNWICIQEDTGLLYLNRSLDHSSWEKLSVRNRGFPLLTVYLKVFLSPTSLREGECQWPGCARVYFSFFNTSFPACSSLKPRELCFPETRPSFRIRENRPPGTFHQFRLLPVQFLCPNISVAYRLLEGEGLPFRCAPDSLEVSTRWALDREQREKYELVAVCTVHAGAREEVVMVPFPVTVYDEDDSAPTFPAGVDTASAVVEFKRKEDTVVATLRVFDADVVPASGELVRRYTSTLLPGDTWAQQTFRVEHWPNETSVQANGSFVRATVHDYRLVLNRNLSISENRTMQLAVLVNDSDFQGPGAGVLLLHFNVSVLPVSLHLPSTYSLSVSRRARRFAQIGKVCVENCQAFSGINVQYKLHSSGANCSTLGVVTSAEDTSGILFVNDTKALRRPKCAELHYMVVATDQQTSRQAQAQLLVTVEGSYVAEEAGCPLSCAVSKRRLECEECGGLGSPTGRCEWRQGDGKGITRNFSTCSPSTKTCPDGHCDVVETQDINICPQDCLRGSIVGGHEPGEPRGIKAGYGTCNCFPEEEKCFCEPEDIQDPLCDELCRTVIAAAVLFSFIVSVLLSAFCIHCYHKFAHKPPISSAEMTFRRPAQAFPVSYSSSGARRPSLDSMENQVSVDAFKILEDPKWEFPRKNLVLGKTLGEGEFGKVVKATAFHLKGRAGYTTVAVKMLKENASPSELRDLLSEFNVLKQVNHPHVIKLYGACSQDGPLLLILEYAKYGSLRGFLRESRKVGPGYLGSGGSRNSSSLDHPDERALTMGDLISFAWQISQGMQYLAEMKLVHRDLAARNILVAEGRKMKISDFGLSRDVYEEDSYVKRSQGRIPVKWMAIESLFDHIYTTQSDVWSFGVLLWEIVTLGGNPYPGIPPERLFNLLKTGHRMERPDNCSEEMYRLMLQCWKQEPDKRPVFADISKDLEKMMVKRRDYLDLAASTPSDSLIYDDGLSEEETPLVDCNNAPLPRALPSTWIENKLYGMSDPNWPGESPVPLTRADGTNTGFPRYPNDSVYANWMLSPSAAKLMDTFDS
T6 sequence (P57059 whole entry): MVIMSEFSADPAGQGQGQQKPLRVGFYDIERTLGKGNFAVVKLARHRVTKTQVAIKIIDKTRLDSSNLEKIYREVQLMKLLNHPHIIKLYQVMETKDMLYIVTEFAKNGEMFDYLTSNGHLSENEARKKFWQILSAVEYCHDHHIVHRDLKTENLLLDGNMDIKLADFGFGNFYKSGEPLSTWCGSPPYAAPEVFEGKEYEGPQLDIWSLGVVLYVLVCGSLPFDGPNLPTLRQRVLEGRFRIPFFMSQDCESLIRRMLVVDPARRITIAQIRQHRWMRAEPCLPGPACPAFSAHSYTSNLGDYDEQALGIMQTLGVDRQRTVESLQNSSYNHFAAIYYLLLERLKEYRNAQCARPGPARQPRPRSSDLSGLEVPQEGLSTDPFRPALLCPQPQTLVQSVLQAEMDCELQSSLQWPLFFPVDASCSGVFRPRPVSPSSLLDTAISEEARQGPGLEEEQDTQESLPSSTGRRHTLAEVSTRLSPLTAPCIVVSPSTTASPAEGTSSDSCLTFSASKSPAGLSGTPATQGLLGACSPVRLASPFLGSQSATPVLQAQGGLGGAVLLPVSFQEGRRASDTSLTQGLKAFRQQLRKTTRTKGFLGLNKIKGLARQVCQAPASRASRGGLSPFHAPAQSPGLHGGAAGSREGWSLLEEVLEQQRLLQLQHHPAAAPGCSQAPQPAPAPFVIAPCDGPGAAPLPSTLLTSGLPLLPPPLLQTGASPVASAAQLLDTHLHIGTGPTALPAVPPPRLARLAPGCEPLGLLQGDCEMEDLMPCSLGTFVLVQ

N[C@H]1CC[C@H](Nc2cc(-c3cccc(NCc4cccc(F)c4)n3)c(Cl)cn2)CC1 [i-CDK9, N2′-(trans-4-aminocyclohexyl)-5′-chloro-N6-(3-fluorobenzyl)-2,4′-bipyridine-2′,6-diamine]
remaining binding at 1 µM (TESK1; 1 µM i-CDK9): 100%
remaining binding at 10 µM (TESK1; 10 µM i-CDK9): 57%
remaining binding at 1 µM (MUSK; 1 µM i-CDK9): 88%
remaining binding at 10 µM (MUSK; 10 µM i-CDK9): 100%
remaining binding at 1 µM (ERK8; 1 µM i-CDK9): 85%
remaining binding at 10 µM (ERK8; 10 µM i-CDK9): 20%
remaining binding at 1 µM (WEE1; 1 µM i-CDK9): 100%
remaining binding at 10 µM (WEE1; 10 µM i-CDK9): 100%
% Retention on Solid Support ([1]; 1 µM i-CDK9): 46%
% Retention on Solid Support ([1]; 10 µM i-CDK9): 65%
% Retention on Solid Support (SIK; 1 µM i-CDK9): 100%
% Retention on Solid Support (SIK; 10 µM i-CDK9): 100%
remaining binding at 1 µM (MAP4K2; 1 µM i-CDK9): 64%
remaining binding at 10 µM (MAP4K2; 10 µM i-CDK9): 10%
remaining binding at 1 µM (STK35; 1 µM i-CDK9): 100%
remaining binding at 10 µM (STK35; 10 µM i-CDK9): 91%
remaining binding at 1 µM (BMX; 1 µM i-CDK9): 96%
remaining binding at 10 µM (BMX; 10 µM i-CDK9): 81%
remaining binding at 1 µM (CSNK2A2; 1 µM i-CDK9): 100%
remaining binding at 10 µM (CSNK2A2; 10 µM i-CDK9): 78%
remaining binding at 1 µM (FLT1; 1 µM i-CDK9): 100%
remaining binding at 10 µM (FLT1; 10 µM i-CDK9): 81%
remaining binding at 1 µM (DCAMKL2; 1 µM i-CDK9): 100%
remaining binding at 10 µM (DCAMKL2; 10 µM i-CDK9): 65%
remaining binding at 1 µM (CAMK4; 1 µM i-CDK9): 78%
remaining binding at 10 µM (CAMK4; 10 µM i-CDK9): 100%
remaining binding at 1 µM ([2]; 1 µM i-CDK9): 84%
remaining binding at 10 µM ([2]; 10 µM i-CDK9): 100%
remaining binding at 1 µM (PIP5K2B; 1 µM i-CDK9): 100%
remaining binding at 10 µM (PIP5K2B; 10 µM i-CDK9): 77%
remaining binding at 1 µM (BRK; 1 µM i-CDK9): 70%
remaining binding at 10 µM (BRK; 10 µM i-CDK9): 100%
remaining binding at 1 µM (PIP5K2C): 100%
remaining binding at 1 µM (ABL1-phosphorylated): 67%
remaining binding at 1 µM (TNK2; 1 µM i-CDK9): 88%
remaining binding at 10 µM (TNK2; 10 µM i-CDK9): 99%
remaining binding at 1 µM (YANK1): 100%
remaining binding at 1 µM (PRKG2; 1 µM i-CDK9): 100%
remaining binding at 10 µM (PRKG2; 10 µM i-CDK9): 100%
remaining binding at 1 µM (CAMK2D; 1 µM i-CDK9): 100%
remaining binding at 10 µM (CAMK2D; 10 µM i-CDK9): 100%
remaining binding at 1 µM (CSNK1A1): 69%
% Retention on Solid Support (MKK7): 100%
remaining binding at 1 µM ([3]; 1 µM i-CDK9): 45%
remaining binding at 10 µM ([3]; 10 µM i-CDK9): 97%
remaining binding at 1 µM (RET(V804L); 1 µM i-CDK9): 100%
remaining binding at 10 µM (RET(V804L); 10 µM i-CDK9): 79%
remaining binding at 1 µM (LYN; 1 µM i-CDK9): 100%
remaining binding at 10 µM (LYN; 10 µM i-CDK9): 81%
remaining binding at 1 µM (CSNK1A1L; 1 µM i-CDK9): 97%
remaining binding at 10 µM (CSNK1A1L; 10 µM i-CDK9): 100%
remaining binding at 1 µM (MLK2; 1 µM i-CDK9): 100%
remaining binding at 10 µM (MLK2; 10 µM i-CDK9): 100%
remaining binding at 1 µM (GSK3A; 1 µM i-CDK9): 93%
remaining binding at 10 µM (GSK3A; 10 µM i-CDK9): 8.7%
